The source of these data is patent US20230357179A1, “RAF KINASE INHIBITORS AND METHODS OF USE THEREOF” (Deciphera Pharmaceuticals, LLC, priority 2021, published 2023).

Assay [1] addresses T1, C-Raf kinase (Homo sapiens, UniProt P04049, Y340D/Y341D).
T1 construct: Y340D,; GST (N); purchased Sigma
In words: Biochemical assay for C-Raf.1 (coupled pyruvate kinase/lactate dehydrogenase). Conditions: read-out: CRAF.1 IC50. The gist of the method: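 NADH depletion at 340 nm monitored continuously for 6 h at 30° C, with rates taken over 4–5 h. The coupled pyruvate kinase/lactate dehydrogenase reaction used 1 mM ATP, 30.1 nM MEK substrate and 0.43 nM kinase at pH 7.5. IC50 was fitted sigmoidally from percent inhibition of serially diluted compound.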

The target of assay [2] is T2, B-Raf (V600E) kinase (Homo sapiens, UniProt P15056, V600E).
T2 construct: B-Raf (V600E) residues 416-766 with a; GST (N); purchased SignalChem
In words: Biochemical assay for B-Raf (V600E).1 (coupled pyruvate kinase/lactate dehydrogenase). Conditions: read-out: BRAF V600E.1 IC50. The gist of the method:
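IC50 came from four-parameter sigmoidal fits of percent inhibition, using reaction rates over 3-4 h. Continuous A340 reading (6 h, 30 °C) of a pyruvate kinase/lactate dehydrogenase-coupled reaction: B-Raf V600E 0.03 nM, MEK 30.1 nM, ATP 1 mM, Tris pH 7.5, 1% DMSO.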

Assay [3] addresses T3, B-Raf kinase (Homo sapiens, UniProt P15056).
T3 construct: GST (N); purchased Sigma
In words: Biochemical assay for B-Raf.2 (coupled pyruvate kinase/lactate dehydrogenase). The note with it: read-out: BRAF.2 IC50. As to the method: Biochemical Assay for B-Raf.2
Activity of B-Raf kinase (SEQ. ID NO: 2) was determined spectroscopically using a coupled pyruvate kinase/lactate dehydrogenase assay that continuously monitors the ATP hydrolysis-dependent oxidation of NADH (e.g., Schindler et al., Science, 2000, 289, 1938-1942). Assays were conducted in 384-well plates (25 μL final volume) using 2 nM B-Raf (Sigma), 1.5 units pyruvate kinase, 2.1 units lactate dehydrogenase, 1 mM phosphoenol pyruvate, 0.7 mM NADH, 50 nM MEK (SignalChem), and 1 mM ATP in assay buffer (100 mM Tris, pH 7.5, 15 mM MgCl2, 0.5 mM DTT, 0.1% octyl-glucoside, 0.002% (w/v) BSA, and 0.002% Triton X-100). Inhibition of B-Raf was measured by adding serial diluted test compound (final assay concentration of 1% DMSO). A decrease in absorption at 340 nm was monitored hourly for 4 h at 30° C. on a multi-mode microplate reader (BioTek). The reaction rate was calculated using the 2 to 3 h time frame. The reaction rate at each concentration of compound was converted to percent inhibition using controls (i.e., reaction with no test compound and reaction with a known inhibitor) and IC50 values were calculated by fitting a four-parameter sigmoidal curve to the data using Prism (GraphPad software).

In assay [4] the test system is A375 cells. In words: A375 cell proliferation assay (2), resazurin, 384-well. In kind it is cell-based. The note with it: Homo sapiens, A-375, inhibition of cell proliferation, 67-72 h. As to the method: A375 Cell Proliferation Assay (2)
A375 cells (catalog (#CRL-1619) are obtained from the American Type Culture Collect (ATTC, Manassas, VA). Briefly, cells were grown in DMEM High Glucose supplemented with 10% characterized fetal bovine serum (Invitrogen, Carlsbad, CA) and 1% Penicillin/Streptomycin/L-Glutamine at 37° C., 5% CO2, and 95% humidity. Cells are expanded until reaching 70-95% confluency at which point they are sub-cultured or harvested for assay use. Using the Beckman Coulter Echo 650, a serial dilution of test compound is dispensed into a 384-well black clear bottom plate in triplicate. Six hundred twenty-five cells are added per well in 50 μL complete growth medium in the 384-well plate. Plates are incubated for 67-72 h at 37° C., 5% CO2, and 95% humidity. At the end of the incubation, 10 μL of a 440 μM solution of resazurin (Sigma, St. Louis, MO) in PBS is added to each well of the plate and plates are incubated for an additional 3-6 h at 37° C., 5% CO2, and 95% humidity. Plates are read on a Synergy2 or equivalent reader (Biotek, Winooski VT) using an excitation of 540 nm and an emission of 600 nm. Data is analyzed using Prism software (GraphPad, San Diego, CA) to calculate IC50 values.
On the technique in general: The colour change of resazurin is a common sign of viable cells or microbes.

Each structure is given as a SMILES string.

T3 sequence (P15056 416-766): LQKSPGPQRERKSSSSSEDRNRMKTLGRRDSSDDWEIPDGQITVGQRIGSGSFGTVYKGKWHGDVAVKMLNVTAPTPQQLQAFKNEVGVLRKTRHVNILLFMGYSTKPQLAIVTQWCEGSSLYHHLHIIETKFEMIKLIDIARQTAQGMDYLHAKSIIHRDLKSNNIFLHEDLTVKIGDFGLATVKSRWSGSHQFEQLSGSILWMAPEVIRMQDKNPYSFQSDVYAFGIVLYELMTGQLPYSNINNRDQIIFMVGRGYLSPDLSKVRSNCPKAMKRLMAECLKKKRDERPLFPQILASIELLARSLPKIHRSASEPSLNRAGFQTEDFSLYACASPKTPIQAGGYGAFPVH
T1 sequence (P04049 307-648 Y340D/Y341D): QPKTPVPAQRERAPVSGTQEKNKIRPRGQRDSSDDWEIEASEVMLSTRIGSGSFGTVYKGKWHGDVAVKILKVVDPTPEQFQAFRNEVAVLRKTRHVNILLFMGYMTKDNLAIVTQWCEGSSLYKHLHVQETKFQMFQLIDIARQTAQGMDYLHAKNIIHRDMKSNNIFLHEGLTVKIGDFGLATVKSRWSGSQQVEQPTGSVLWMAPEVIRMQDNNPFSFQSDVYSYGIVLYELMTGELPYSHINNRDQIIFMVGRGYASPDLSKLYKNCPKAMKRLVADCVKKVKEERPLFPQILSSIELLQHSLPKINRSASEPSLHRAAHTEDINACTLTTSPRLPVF
T2 sequence (P15056 416-766 V600E): as the sequence (P15056 416-766) above, with V185E counted along it

As for `Cc1cc(F)c(NC(=O)NCC[C@@H]2CCO2)cc1-c1cc(OCCO)nc(-c2ccnc3[nH]ncc23)c1` [Example 89], the IC50 in assay [1] and in assay [2] was above 1000 nM each time.

Consider `Cc1cc(F)c(NC(=O)N2CCC(C)(C#N)CC2)cc1-c1cc(OCCO)nc(-c2ccnc3[nH]ncc23)c1` [Example 92], for which the concentration for half-maximal inhibition (IC50) in assay [1] is 100 to 500 nM; in assay [2], at most 100 nM.

Turning to `COC(=O)Nc1cc(-c2cncc(-c3cc(NC(=O)N4CC[C@H](C(F)(F)F)C4)ccc3C)c2)ncn1` [Example 224], the half-inhibitory concentration (IC50) in assay [3] was at most 100 nM.

Take `COC(C)(C)CCNC(=O)Nc1cc(-c2cc(OCCO)nc(-c3ccnc4[nH]ccc34)c2)c(C)cc1F` [Example 90]: the IC50 in assay [1] and in assay [2] was at most 100 nM throughout.

On to `CNC(=O)c1cc(-c2cncc(-c3cc(NC(=O)N4CC[C@H](C(C)C)C4)ccc3C)c2)ncn1` [Example 226], for which the IC50 in assay [4] and in assay [3] was 500 to 1000 nM each time.

Turning to `Cc1ccc(NC(=O)N2CC[C@H](C)C2)cc1-c1cncc(-c2cc(NC(=O)C3CC3)ncn2)c1` [Example 227], the IC50 in assay [4] is 1000 to 10000 nM; in assay [3], at most 100 nM.

On to `CNC(=O)c1cc(-c2cncc(-c3cc(NC(=O)N4CC[C@H](C(F)(F)F)C4)ccc3C)c2)ncn1` [Example 220], for which the concentration for half-maximal inhibition (IC50) lay in the range of 1000 to 10000 nM in assay [4] and 100 to 500 nM in assay [3].

Regarding `CNC(=O)c1cc(-c2cc(-c3cc(NC(=O)N4CC[C@H](C(C)C)C4)ccc3C)ccn2)ccn1` [Example 225], the 50% inhibitory concentration (IC50) in assay [4] and in assay [3] was 100 to 500 nM throughout.

With `Cc1cc(F)c(NC(=O)N[C@@H]2CC[C@H](F)C2)cc1-c1cc(OCCO)nc(-c2ccnc3[nH]ncc23)c1` [Example 88], the 50% inhibitory concentration (IC50) in assay [1] was 100 to 500 nM; in assay [2], at most 100 nM.

On to `CNC(=O)c1cc(-c2cc(-c3cc(NC(=O)N4CC[C@H](C(F)(F)F)C4)ccc3C)ccn2)ccn1` [Example 215], for which, in assay [3], the concentration for half-maximal inhibition (IC50) is 100 to 500 nM.

On to `CNC(=O)c1cc(-c2cncc(-c3cc(NC(=O)N4CC[C@H](C(C)C)C4)ccc3C)c2)ccn1` [Example 229], for which the IC50 in assay [4] and in assay [3] was 100 to 500 nM throughout.

`CNC(=O)c1cc(-c2cncc(-c3cc(NC(=O)N4CC[C@H](C(F)(F)F)C4)ccc3C)c2)ccn1` [Example 228]: the IC50 in assay [4] lay within 1000 to 10000 nM; in assay [3], 100 to 500 nM.

On to `COC(C)(C)CCNC(=O)Nc1cc(-c2cc(OCCO)nc(-c3ccnc4[nH]ncc34)c2)c(C)cc1F` [Example 91], for which the IC50 in assay [1] and in assay [2] was at most 100 nM in each case.

For `Cc1cc(F)c(NC(=O)NCCC2(C)CC2)cc1-c1cc(OCCO)nc(-c2ccnc3[nH]ncc23)c1` [Example 87], the IC50 in assay [1] and in assay [2] was at most 100 nM throughout.

As for `COC(=O)Nc1cc(-c2cccc(-c3cc(NC(=O)NCCC(C)(C)OC)c(F)cc3C)c2)ccn1` [Example 85], the IC50 in assay [1] and in assay [2] was at most 100 nM throughout.

As usually defined, the IC50 is the midpoint of a concentration-inhibition curve.
